# Tests used:
# CT26 cells [1] = assay: Pulmonary metastasis in vivo: CT26 lung tumors in BALB/c mice; parameters: species or system mouse; conditions: CT26 via tail vein, 100 mg/kg/d in chow diet for 3 weeks
# Procedure: BALB/c mice were intravenously injected with 2×10^4 CT26 cells in 100 μL of PBS via tail vein injection and the mice were treated with bHDL at 10 mg/kg/day administered SQ for 3 weeks; or treated with bHDL at 100 mg/kg/day administered in a chow diet for 3 weeks. After 3 weeks treatment, the mice were sacrificed; lungs were harvested, weighed and fixed with Bouin's solution (Sigma). Tumor nodules on the lung surface were counted.
# BALB/c mice were intravenously injected with 2×10^4 CT26 cells in […] of PBS via tail vein injection and the mice were treated with L-4F or sc-4F at 10 mg/kg/d administered subcutaneously for 3 weeks, or treated with sc-4F or L-4F or G* peptide at 100 mg/kg/d administered in a chow diet for 3 weeks. After 3 weeks treatment, the mice were sacrificed; lungs were harvested, weighed, and fixed with Bouin solution (Sigma). Tumor nodules on the lung surface were counted.
# [2] = test system: lysophosphatidic acid (LPA); assay: Plasma LPA levels in treated mice; type: in vivo, mouse; conditions: BALB/c lung tumor mice; 100 mg/kg/d in chow for 3 weeks; vs control mice
# Procedure: LPA (20:4) was purchased from Avanti Polar Lipids. LPA levels were determined as described previously (Murph et al., 2007, Methods Enymol 433:1-25).
# LPA (20:4) was purchased from Avanti Polar Lipids. LPA levels were determined as described previously (19).
# cyclin D1 and cyclin A = assay: Western blot of cyclin D1 and cyclin A in CT26 cells; type: cell-based, mouse
# Procedure: Total cell proteins were collected after treatment in cell lysis buffer containing 0.1 mol/L NaCl, 5 mmol/L EDTA, 50 mmol/L sodium orthovanadate, 1% Triton X-100, and protease inhibitor tablet in 50 mmol/L Tris buffer (pH 7.5). Twenty micrograms of total proteins were separated by SDS-PAGE and transferred onto nitrocellulose membrane and followed by incubation with primary antibody at 4° C. in 5% skim milk and 0.1% Tween-20. Anti-cyclin D1 and anti-cyclin A rabbit polyclonal antibodies were used at 1:1,000 dilution, and anti-b-actin polyclonal antibody was used at 1:2,000 dilution.
# CT26 cells [3] = assay: CT26 cell viability, MTS assay; conditions: Example 5; CT26 cells, 10 mg/mL, 48 hours
# Procedure: CT26 cell line derived from N-nitroso-N-methyl urethane-induced mouse colon carcinoma of BALB/c origin was purchased from the American Type Culture Collection (ATCC). CT26 cells (2,000 cells per well) were first cultured in complete medium in 96-well culture plates, and 24 hours later the medium was replaced with serum free medium. Following an overnight incubation, the cells were either treated with vehicle (control), or treated with 10 μg/mL of either bHDL. The bHDL were dissolved in H2O. Cells were incubated for an additional 48 hours and assayed for viability using the MTS assays kit (Promega) according to the manufacturer's protocol.
# CT26 cell line derived from N-nitroso-N-methyl urethane-induced mouse colon carcinoma of BALB/c origin was purchased from the American Type Culture Collection. CT26 cells (2,000 cells per well) were first cultured in complete medium in 96-well culture plates, and 24 hours later the medium was replaced with serum-free medium. Following an overnight incubation, the cells were either treated with vehicle (control) or treated with 10 mg/mL of either L-4F or G* peptide. The peptides were dissolved in H2O. Cells were incubated for an additional 48 hours and assayed for viability using the MTS assay kit (Promega) according to the manufacturer's protocol.
substance,measurement,setting,value
"Ac-LVGRQLEEFL-NH2 [G* peptide, Ac-L-V-G-R-Q-L-E-E-F-LNH2]",lung weights,CT26 cells [1],250 mg
same,tumor numbers on the lung surface,CT26 cells [1],10
same,plasma LPA levels,[2],significantly reduced
same,expression of cyclin D1 and cyclin A,cyclin D1 and cyclin A,lower
same,"Cell viability reduced, compared with control",CT26 cells [3],approximately 40%
